These results are taken from PubChem BioAssay AID720513 (Broad Institute, 2013).

The structures appear in SMILES notation. Records with an inconclusive call do not appear.

This assay relates to U2OS PGC1a acetylation AlphaLISA, overnight. Kind of assay: activators raising PGC1a acetylation in cells, dose response, cell-based, cherry-picked samples, set 6 (AID 720513).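 Further: cells made to overexpress flag tagged PGC1a plus GCN5 acetyltransferase by viral infection.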
Turning to `COc1cccc(NC(=O)N(C)C[C@H]2OCc3ccccc3-c3c(n(C)c4ccccc34)C(=O)N([C@@H](C)CO)C[C@@H]2C)c1`, the AC40 is 18.3 µM.
On to `Cc1ccc(S(=O)(=O)Nc2ccc3c(c2)C(=O)N([C@@H](C)CO)C[C@@H](C)[C@H](CN(C)C(=O)Nc2cccc4ccccc24)OCCCC[C@H](C)O3)cc1`, for which the AC40 is 3.83 µM.
As to `CCCCn1c(CN(Cc2ccccc2)Cc2ccccc2)nc2c1c(=O)n(C)c(=O)n2C`, the AC40 is 3.88 µM.
For `Cc1ccc2c(CN(Cc3ccccc3)Cc3ccccc3)cc(=O)oc2c1`, the AC40 was 6.06 µM.
On to `C[C@@H]1CN([C@H](C)CO)C(=O)c2c(c3ccccc3n2C)-c2ccccc2CO[C@@H]1CN(C)C(=O)c1ccccc1`, for which the AC40 is 5.94 µM.
Then `COc1ccc(S(=O)(=O)N2CCOCC2)cc1NC(=O)CCNC(=O)c1ccc(Cl)cc1`, with 0.772 µM; and `CCOC(=O)C(NC(=O)c1ccccc1OCC)(Nc1ncccn1)C(F)(F)F` (stereo not drawn), with 1.32 µM; and `COc1ccc(S(=O)(=O)N(C)C[C@@H]2Oc3cc(C#CC4CC4)ccc3S(=O)(=O)N([C@H](C)CO)C[C@@H]2C)cc1`, with 18 µM.
As to `COC(=O)c1ccc2[nH]c3cccc(/C(=C/c4ccccc4)c4ccccc4)c3c2c1`, the AC40 is 3.62 µM.
Then `C[C@H]1CN([C@@H](C)CO)C(=O)c2cccc(NC(=O)Nc3cccc4ccccc34)c2O[C@H]1CN(C)Cc1ccc(C(=O)Nc2ccccc2N)cc1`, with 7.53 µM; and `O=C(C[C@H]1CC[C@H]2[C@@H](COC[C@@H](O)CN2C(=O)c2cc(Cl)cc(Cl)c2)O1)N1CCc2ccccc2C1`, with 9.14 µM; and `CC(=O)Nc1ccc(NC(=O)CN(c2cc(Cl)ccc2Cl)S(C)(=O)=O)cc1`, with 1.14 µM.
As to `C[C@@H]1CN([C@H](C)CO)C(=O)c2c(c3ccccc3n2C)-c2ccccc2CO[C@@H]1CN(C)C(=O)c1ccc(F)cc1`, the AC40 was 6.65 µM.
Take `O=C(Nc1cccnc1)c1ccc(Oc2ccccc2)cc1`: the AC40 was 2.19 µM.
As to `C[C@H](CO)N1C[C@H](C)[C@@H](CN(C)Cc2ccc3c(c2)OCO3)Oc2ccc(NC(=O)Nc3ccc4c(c3)OCO4)cc2CC1=O`, the AC40 was 18.2 µM.
With `CCOC(=O)C1=CC[C@@H](c2ccc(OC)cc2)N(S(=O)(=O)c2ccc(C)cc2)[C@H]1CC`, the AC40 is 3.36 µM.
As for `N#Cc1ccc(Oc2cccnc2)cc1C#N`, the AC40 is 6.09 µM.
With `O=S1(=O)CCOC[C@H](CC2CCCCC2)N1Cc1ccc(F)cc1`, the AC40 was 9.18 µM.
With `NC(=O)Cc1ccc2c(c1)[nH]c1ccccc12`, the AC40 is 1.33 µM.
With `CCCCC(=O)Nc1ccc(C(=O)NCCCn2ccnc2)cc1`, the AC40 was 0.269 µM.
For the compound `C[C@@H]1CN([C@@H](C)CO)C(=O)c2c(c3ccccc3n2C)-c2ccccc2CO[C@@H]1CN(C)C(=O)c1cc(Cl)cc(Cl)c1`, the AC40 is 12.7 µM.
Regarding `COc1ccc(-n2nnnc2CNC(=O)c2ccc3ccccc3c2)cc1`, the AC40 was 6.36 µM.
As for `Cc1nn2c(NCCCN3CCOCC3)c3c(nc2c1-c1ccccc1)CCC3`, the AC40 is 3.72 µM.
On to `O=C(Cn1c(CN2CCCCC2)nc2ccccc2c1=O)Nc1ccccc1`, for which the AC40 is 5.19 µM.
Then `CC(=O)C1=CCC(c2cccc3ccccc23)N(S(=O)(=O)c2ccc(C)cc2)C1` (stereo not drawn), with 18.7 µM; and `CC(OC(=O)C1CCCC1)C(=O)Nc1ccc(C(N)=O)cc1` (stereo not drawn), with 15.8 µM.
Regarding `COc1ccc(C#Cc2cnc3c(c2)C(=O)N([C@H](C)CO)C[C@H](C)[C@H](CN(C)S(=O)(=O)c2cccc(F)c2)O3)cc1OC`, the AC40 was 18.8 µM.
`CC(C)C(c1nnnn1Cc1ccccc1)N(Cc1ccco1)Cc1cccs1` (stereo not drawn): the AC40 is 0.907 µM.
As to `COc1ccc(C(C)(O)c2nc(-c3ccc(S(C)(=O)=O)cc3)cs2)cc1` (stereo not drawn), the AC40 is 7.7 µM.
To `CCN(CC)S(=O)(=O)c1c(Br)cc(C)cc1Br` belongs 1.29 µM.
On to `CC1(C)CC(=O)C2=C(C1)Nc1ccccc1N1C(=O)c3ccccc3C21` (stereo not drawn), for which the AC40 is 2.15 µM.
For the compound `CN(C(=O)C1CC1)C1CCS(=O)(=O)C1` (stereo not drawn), the AC40 is 15.2 µM.
Then `CC1(C)CCCN(C(=O)N2c3ccccc3Sc3ccccc32)C1`, with 1.33 µM.
